Experimental findings from PubChem BioAssay (NCI) are described below.

Test systems include CCRF-CEM leukemia; COLO 205 colon; DMS 114 small cell lung; HCC-2998 colon; HOP-18 NSCLC; K-562 leukemia; KM12 colon; KM20L2 colon; MOLT-4 leukemia; NCI-H23 lung; NCI-H522 lung; SF-268 CNS; SK-OV-3 ovarian; SNB-75 CNS; UACC-62 melanoma; MCF7 breast; RXF 393 renal.
What all share (assay): inhibition of tumour cell growth, NCI panel, 48 h

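The compound was tested at five concentrations on cells cultured in 96-well plates, with a 48-hour exposure period. GI50: concentration for 50% inhibition of growth. The concentration for full growth arrest is given as TGI.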

With `N=S(=O)(c1ccccc1)c1ccccc1`, the TGI with CCRF-CEM leukemia, with COLO 205 colon, in the test with DMS 114 small cell lung, in the test on HCC-2998 colon, in the test on HOP-18 NSCLC and with K-562 leukemia was more than 100 µM throughout. For the same compound, the TGI with KM12 colon, in the test on KM20L2 colon, in the test with MOLT-4 leukemia, in the test on NCI-H23 lung, in the test with NCI-H522 lung and with SF-268 CNS was more than 100 µM throughout. The TGI in the test on SK-OV-3 ovarian, in the test on SNB-75 CNS and in the test with UACC-62 melanoma was more than 100 µM in each case.

As for `O=C(/C=C/c1ccc2c(c1)OCO2)NCCc1ccco1`, the TGI with CCRF-CEM leukemia, in the test with COLO 205 colon, in the test with HCC-2998 colon, in the test on K-562 leukemia, in the test on KM12 colon and in the test with MCF7 breast was more than 100 µM in each case. The TGI in the test with MOLT-4 leukemia was more than 100 µM; with NCI-H23 lung it was more than 100 µM; in the test with NCI-H522 lung, 79.7 µM; with RXF 393 renal, more than 100 µM; in the test with SF-268 CNS, more than 100 µM; in the test with SK-OV-3 ovarian it was more than 100 µM. Moreover, the TGI in the test on SNB-75 CNS and in the test with UACC-62 melanoma was more than 100 µM in each case.

As to `C[N+](C)(C)CCOC(=O)/C=C/c1cnc[nH]1`, the TGI in the test on CCRF-CEM leukemia, in the test on COLO 205 colon, in the test with DMS 114 small cell lung, in the test with HCC-2998 colon, with HOP-18 NSCLC and with K-562 leukemia was more than 500 µM throughout. Besides, the TGI is more than 500 µM in the test with KM12 colon; more than 500 µM with KM20L2 colon; more than 500 µM in the test with MCF7 breast; more than 316 µM in the test on MOLT-4 leukemia; more than 500 µM in the test with NCI-H23 lung; more than 500 µM with NCI-H522 lung. For the same compound, the TGI in the test with RXF 393 renal, in the test on SF-268 CNS, in the test on SK-OV-3 ovarian, in the test on SNB-75 CNS and in the test with UACC-62 melanoma was more than 500 µM each time.

In the case of `COc1cccc2c1C(=O)c1c(O)c3c(c(O)c1C2=O)C[C@@](O)(C(=O)CN1CCOCC1)C[C@@H]3OC1CC(N)C(O)C(C)O1` (stereo partly specified), the GI50 in the test on CCRF-CEM leukemia was 0.964 µM; in the test with HOP-18 NSCLC, 1.43 µM; in the test with MOLT-4 leukemia it was 0.234 µM. Moreover, the TGI is more than 23.1 µM in the test on CCRF-CEM leukemia; 24.1 µM with COLO 205 colon; 21.8 µM in the test on DMS 114 small cell lung; 23.3 µM with HCC-2998 colon; 22 µM in the test on HOP-18 NSCLC; 61.7 µM with K-562 leukemia. Besides, the TGI in the test on KM12 colon was 51.5 µM; in the test with KM20L2 colon it was 71.5 µM; in the test on MCF7 breast it was more than 100 µM; in the test with MOLT-4 leukemia, 1.15 µM; in the test with NCI-H23 lung, 20.9 µM; in the test on NCI-H522 lung it was 15.4 µM. Further, the TGI in the test with RXF 393 renal was 23.9 µM; with SF-268 CNS, 51.3 µM; with SK-OV-3 ovarian it was more than 100 µM; with SNB-75 CNS, 22.4 µM; in the test on UACC-62 melanoma it was 15.7 µM.

`O=C(O)CN1CCCC(Cc2c[nH]c3ccccc23)C1` (stereo unspecified): the TGI in the test on COLO 205 colon, in the test with HCC-2998 colon, in the test with K-562 leukemia, in the test on KM12 colon, with NCI-H23 lung and with RXF 393 renal was more than 100 µM in each case. For the same compound, the TGI with SF-268 CNS, in the test on SK-OV-3 ovarian, in the test on SNB-75 CNS and in the test with UACC-62 melanoma was more than 100 µM in each case.
